Results as given in US9056139B2, “Fatty acid-salicylate conjugates with enhanced therapeutic properties” (KEAN UNIVERSITY, priority 2012, dated 2015).

Test system: HT-29 human adenocarcinoma cells
Test: Apoptosis induction in Human Adenocarcinoma cells (HT-29)
Type: cell-based
Conditions: HT-29 cells, FIG. 18 and FIG. 19

Question: Which pro-apoptotic effect does the source give for `CC/C=C\C/C=C\C/C=C\C/C=C\C/C=C\C/C=C\CCC(=O)Oc1ccccc1C(=O)O` [DHASPIR, 2-((4Z,7Z,10Z,13Z,16Z,19Z)-docosa-4,7,10,13,16,19-hexaenoyloxy)benzoic acid] here?
Answer: Its pro-apoptotic effect is “same pro-apoptotic effect as the DHA/acetyl salicylate combination”.
